Data published in patent US20260364184A1, “COMPOUND BASED ON OXOISOINDOLINYL-SUBSTITUTED TETRAHYDROPYRIMIDINE-DIONE AND USE THEREOF” (GLUETACS THERAPEUTICS (SHANGHAI) CO., LTD., priority 2023, published 2026).
Where two headings read alike, the source gives them in different places.

What was measured:
Assay type in all cases: cell-based
[1] = test system: Human Multiple myeloma cell line (MM.1S); experiment: Inhibition of MM.1S cell proliferation (CellTiter luminescent viability); conditions: Homo sapiens, MM1.S, 96 hours; for inhibition at 0.01 µM: 10 nM, read-out: Inhibition Rate at 10 nM (%); for inhibition at 0.5 µM: 500 nM, read-out: Inhibition Rate at 500 nM (%)
Description: (§1) The tumor cells used herein were cultured in a cell culture medium listed in table 3 at 37 °C in an incubator with 5% CO2. Prior to experimentation, all cell lines used were correctly identified by STR profiling, and tested negative for mycoplasma contamination using a mycoplasma detection kit through routine screenings.
(§2) The IC50 values of the compounds of the present disclosure (including the compounds in Table 1, Table 2, and Examples 1-468) were determined using the CellTiter-Meiluncell Luminescent Cell Viability Assay Kit from Dalian Meilun Biotech Co., Ltd. The detailed procedure is as follows: Tumor cells were seeded in 96-well cell culture plates at the densities specified in Table 4. On the following day, the test compounds of the present disclosure were subjected to serial dilution. The dilution can be performed according to one of the following two methods: • (1) The first dilution method: The test compounds of the present disclosure (including the compounds in Table 1, Table 2, and Examples 1-468) were subjected to 5-fold serial dilutions starting from a highest concentration of 2000 μM, resulting in a total of 9 concentrations from high to low (2000, 400, 80, 16, 3.2, 0.64, 0.128, 0.0256, 0.00512 μM). Subsequently, 0.5 μL of the test compound dilution was transferred into the 96-well plate containing the cells, with each well containing 100 μL of cell culture medium. […] Into the 96-well plate, the diluted test compounds and corresponding detection reagents were added, resulting in final test compound concentrations of 500 nM and 10 nM, respectively. The experimental procedure is described below using the diluted 2 μM test compound as an example.
(§3) 0.5 μL of the aforementioned diluted compound of the present disclosure (including the compounds in Table 1, Table 2, and Examples 1-468) was added to the seeded cells in 100 μL of medium, yielding a final test compound concentration of 10 nM. After the cells were treated with the compounds of the present disclosure for a specified period, the cell viability assay reagent was added to the culture medium according to the kit's instructions to determine cell viability. […] All controls were treated using the same procedure as the compounds of the present disclosure. The growth inhibition curves for the compounds of the present disclosure were plotted using Prism GraphPad software, and the IC50 values were calculated therefrom.

[2] = test system: Human Acute T Lymphoblastic Leukemia Cells (Molt-4); experiment: Inhibition of Molt-4 cell proliferation (CellTiter luminescent viability); conditions: Homo sapiens, MOLT-4, 96 h, Table IA2, IRAK4 inhibitor-based, 96 hours
Description: as §1, §2, §3

[3] = test system: Human myeloid monocytic leukemia cell line (MV-4-11); experiment: Inhibition of MV-4-11 cell proliferation (CellTiter luminescent viability); conditions: Homo sapiens, MV4-11, 96 hours; for inhibition at 0.01 µM: MV-4-11, 10 nM, read-out: Inhibition Rate at 10 nM (%); for inhibition at 0.5 µM: MV-4-11, 500 nM, read-out: Inhibition Rate at 500 nM (%)
Description: as §1, §2, §3

[4] = test system: Human acute lymphocytic leukemia T lymphocytes cell line (CCRF-CEM); experiment: Inhibition of CCRF-CEM cell proliferation (CellTiter luminescent viability); conditions: Homo sapiens, 96 h; for inhibition at 0.01 µM: 10 nM, read-out: Inhibition Rate at 10 nM (%); for inhibition at 0.5 µM: 500 nM, read-out: Inhibition Rate at 500 nM (%)
Description: as §1, §2, §3

[5] = Table IL2, BCR-ABL inhibitor-based
[6] = Table IL1, BCR-ABL inhibitor-based
[7] = Table IL3, BCR-ABL inhibitor-based

Q: For O=C1CCN(N2C(=O)c3ccc(CN4CCN(c5ccc(-c6ccc7c8cnccc8n(CC(F)(F)F)c7c6)cn5)CC4)cc3C2=O)C(=O)N1 [GT-08544, 2-(2,4-dioxotetrahydropyrimidin-1(2H)-yl)-5-((4-(5-(5-(2,2,2-trifluoroethyl)-5H-pyrido[4,3-b]indol-7-yl)pyridin-2-yl)piperazin-1-yl)methyl)isoindoline-1,3-dione], which inhibition at 0.01 µM ([1]; Table IJ1, Tau inhibitor-based) is on record?
A: 30 to 40%

Q: What about the inhibition at 0.5 µM ([1]; Table IJ1, Tau inhibitor-based) of the same compound?
A: 40 to 50%

Q: What does the source list for COc1cc2nn([C@H]3CC[C@H](CN4C[C@H]5C[C@@H]4CN5c4ccc5c(c4)C(=O)N(N4CCC(=O)NC4=O)C5=O)CC3)cc2cc1NC(=O)c1cccc(C(F)(F)F)c1 [GT-08663, N-(2-((1R,4r)-4-(((1R,4R)-5-(2-(2,4-dioxotetrahydropyrimidin-1(2H)-yl)-1,3-dioxoisoindolin-5-yl)-2,5-diazabicyclo[2.2.1]heptan-2-yl)methyl)cyclohexyl)-6-methoxy-2H-indazol-5-yl)-3-(trifluoromethyl)benzamide]?
A: inhibition at 0.01 µM ([2]; Molt-4, 10 nM, read-out: Inhibition Rate at 10 nM (%)): 10 to 15%; inhibition at 0.5 µM ([2]; Molt-4, 500 nM, read-out: Inhibition Rate at 500 nM (%)): 15 to 20%

Q: What does the source list for Cc1cc(-c2ccc3c4cnccc4n(C)c3c2)cnc1N1CCN(CC2CCN(c3ccc4c(c3)C(=O)N(N3CCC(=O)NC3=O)C4=O)CC2)CC1 [GT-08555, 2-(2,4-dioxotetrahydropyrimidin-1(2H)-yl)-5-(4-((4-(3-methyl-5-(5-methyl-5H-pyrido[4,3-b]indol-7-yl)pyridin-2-yl)piperazin-1-yl)methyl)piperidin-1-yl)isoindoline-1,3-dione]?
A: inhibition at 0.01 µM ([3]; Table IJ2, Tau inhibitor-based): 30 to 40%; inhibition at 0.5 µM ([3]; Table IJ2, Tau inhibitor-based): 70 to 80%; inhibition at 0.01 µM ([1]; Table IJ1, Tau inhibitor-based): 30 to 40%; inhibition at 0.5 µM ([1]; Table IJ1, Tau inhibitor-based): 60 to 70%

Q: Which results are given for Cc1nc(Nc2ncc(C(=O)Nc3c(C)cccc3Cl)s2)cc(N2CCN(CCO)CC2)n1 [Dasatinib, reference compound]?
A: inhibition at 0.01 µM [3, 5]: 10 to 15%; inhibition at 0.5 µM [3, 5]: 40 to 50%; inhibition at 0.01 µM [1, 6]: 0 to 5%; inhibition at 0.5 µM [1, 6]: 15 to 20%; inhibition at 0.01 µM [4, 7]: 10 to 15%; inhibition at 0.5 µM [4, 7]: 15 to 20%

Q: Which results are given for N#Cc1ccc(O[C@H]2CC[C@H](NC(=O)c3ccc(N4CCC(CN5CCN(c6cc(F)c7c(c6)C(=O)N(N6CCC(=O)NC6=O)C7=O)CC5)CC4)nn3)CC2)cc1Cl [GT-05233, N-((1r,4r)-4-(3-chloro-4-cyanophenoxy)cyclohexyl)-6-(4-((4-(2-(2,4-dioxotetrahydropyrimidin-1(2H)-yl)-7-fluoro-1,3-dioxoisoindolin-5-yl)piperazin-1-yl)methyl)piperidin-1-yl)pyridazine-3-carboxamide]?
A: inhibition at 0.01 µM ([4]; Table IF2, AR inhibitor-based): 15 to 20%; inhibition at 0.5 µM ([4]; Table IF2, AR inhibitor-based): 20 to 30%

Q: Which inhibition at 0.01 µM ([1]; Table IG1, FAK inhibitor-based) does the source give for CN(c1cccc(CNc2nc(Nc3ccc(N4CCN(CC5CCN(c6ccc7c(c6)C(=O)N(N6CCC(=O)NC6=O)C7=O)CC5)CC4)cc3)ncc2C(F)(F)F)c1)S(C)(=O)=O [GT-08246, N-(3-(((2-((4-(4-((1-(2-(2,4-dioxotetrahydropyrimidin-1(2H)-yl)-1,3-dioxoisoindolin-5-yl)piperidin-4-yl)methyl)piperazin-1-yl)phenyl)amino)-5-(trifluoromethyl)pyrimidin-4-yl)amino)methyl)phenyl)-N-methylmethanesulfonamide] here?
A: 30 to 40%

Q: What about the inhibition at 0.5 µM ([1]; Table IG1, FAK inhibitor-based) of the same compound?
A: 30 to 40%

Q: With O=C1CCN(N2C(=O)c3ccc(CN4CCN(C5CCN(c6ncc(C(=O)Nc7ccc(OC(F)(F)Cl)cc7)cc6-c6cc[nH]n6)CC5)CC4)cc3C2=O)C(=O)N1 [GT-08227, N-(4-(chlorodifluoromethoxy)phenyl)-6-(4-(4-((2-(2,4-dioxotetrahydropyrimidin-1(2H)-yl)-1,3-dioxoisoindolin-5-yl)methyl)piperazin-1-yl)piperidin-1-yl)-5-(1H-pyrazol-3-yl)nicotinamide] as the compound, how does the inhibition at 0.01 µM [1, 6] read?
A: 20 to 30%

Q: What about the inhibition at 0.5 µM [1, 6] of the same compound?
A: 20 to 30%

Q: With CNC(=O)c1ccccc1Nc1cc(Nc2cc(C)c(C3CCN(Cc4ccc5c(c4)CN(N4CCC(=O)NC4=O)C5=O)CC3)cc2OC(C)C)ncc1C(F)(F)F [GT-07663, 2-((2-((4-(1-((2-(2,4-dioxotetrahydropyrimidin-1(2H)-yl)-1-oxoisoindolin-5-yl)methyl)piperidin-4-yl)-2-isopropoxy-5-methylphenyl)amino)-5-(trifluoromethyl)pyridin-4-yl)amino)-N-methylbenzamide] as the compound, how does the inhibition at 0.01 µM ([1]; Table IG1, FAK inhibitor-based) read?
A: 5 to 10%

Q: And the inhibition at 0.5 µM ([1]; Table IG1, FAK inhibitor-based)?
A: 40 to 60%

Q: Which inhibition at 0.01 µM [4, 7] does the source give for O=C1CCN(N2C(=O)c3ccc(CN4CCC(N5CCN(c6ncc(C(=O)Nc7ccc(OC(F)(F)Cl)cc7)cc6-c6cc[nH]n6)CC5)CC4)cc3C2=O)C(=O)N1 [GT-08225, N-(4-(chlorodifluoromethoxy)phenyl)-6-(4-(1-((2-(2,4-dioxotetrahydropyrimidin-1(2H)-yl)-1,3-dioxoisoindolin-5-yl)methyl)piperidin-4-yl)piperazin-1-yl)-5-(1H-pyrazol-3-yl)nicotinamide] here?
A: 10 to 15%

Q: What about the inhibition at 0.5 µM [4, 7] of the same compound?
A: 30 to 40%

Q: Which inhibition at 0.01 µM ([1]; Table IG1, FAK inhibitor-based) does the source give for CNC(=O)c1ccccc1Nc1cc(Nc2cc(C)c(C3CCN(Cc4ccc5c(c4)C(=O)N(N4CCC(=O)NC4=O)C5=O)CC3)cc2OC(C)C)ncc1C(F)(F)F [GT-07664, 2-((2-((4-(1-((2-(2,4-dioxotetrahydropyrimidin-1(2H)-yl)-1,3-dioxoisoindolin-5-yl)methyl)piperidin-4-yl)-2-isopropoxy-5-methylphenyl)amino)-5-(trifluoromethyl)pyridin-4-yl)amino)-N-methylbenzamide] here?
A: 20 to 30%

Q: And the inhibition at 0.5 µM ([1]; Table IG1, FAK inhibitor-based)?
A: 40 to 60%

Q: How did the inhibition at 0.01 µM [4, 7] turn out when O=C1CCN(N2Cc3cc(CN4CCN(C5CCN(c6ncc(C(=O)Nc7ccc(OC(F)(F)Cl)cc7)cc6-c6cc[nH]n6)CC5)CC4)ccc3C2=O)C(=O)N1 [GT-08226, N-(4-(chlorodifluoromethoxy)phenyl)-6-(4-(4-((2-(2,4-dioxotetrahydropyrimidin-1(2H)-yl)-1-oxoisoindolin-5-yl)methyl)piperazin-1-yl)piperidin-1-yl)-5-(1H-pyrazol-3-yl)nicotinamide] was run?
A: 5 to 10%

Q: And the inhibition at 0.5 µM [4, 7]?
A: 30 to 40%

Q: How did the inhibition at 0.01 µM ([3]; Table IJ2, Tau inhibitor-based) turn out when Cn1c2ccncc2c2ccc(-c3cnc(N4CCN(CC5CCN(c6cccc7c6C(=O)N(N6CCC(=O)NC6=O)C7=O)CC5)CC4)c(C(F)(F)F)c3)cc21 [GT-08561, 2-(2,4-dioxotetrahydropyrimidin-1(2H)-yl)-4-(4-((4-(5-(5-methyl-5H-pyrido[4,3-b]indol-7-yl)-3-(trifluoromethyl)pyridin-2-yl)piperazin-1-yl)methyl)piperidin-1-yl)isoindoline-1,3-dione] was run?
A: 0 to 5%

Q: What about the inhibition at 0.5 µM ([3]; Table IJ2, Tau inhibitor-based) of the same compound?
A: 50 to 60%

Q: Which results are given for Cc1ccc(C(=O)Nc2ccc(N3CCN(CC4CCN(c5ccc6c(c5)C(=O)N(N5CCC(=O)NC5=O)C6=O)CC4)CC3)c(C(F)(F)F)c2)cc1C#Cc1cnc2cccnn12 [GT-08354, N-(4-(4-((1-(2-(2,4-dioxotetrahydropyrimidin-1(2H)-yl)-1,3-dioxoisoindolin-5-yl)piperidin-4-yl)methyl)piperazin-1-yl)-3-(trifluoromethyl)phenyl)-3-(imidazo[1,2-b]pyridazin-3-ylethynyl)-4-methylbenzamide]?
A: inhibition at 0.01 µM [1, 6]: 15 to 20%; inhibition at 0.5 µM [1, 6]: 20 to 30%
